Data on nine compounds can be found in US20150306167A1, “ALPINIA SPP. EXTRACTS FOR TREATING IRRITABLE BOWEL SYNDROME” (MEDICAL AND PHARMACEUTICAL INDUSTRY TECHNOLOGY AND …, priority 2012, published 2015).

In data set [1] the test system is 5-HTP induced visceral hypersensitivity (AWR). Kind of data set: Visceral hypersensitivity by behavioral response, AWR score after 5-HTP. The conditions noted are these: for AWR score: body arching and lifting of pelvic structures / AWR score: lifting abdomen / AWR scores compared with control rats: 5-HTP rats; for anti-abdominal pain activity (or anti-visceral hypersensitivity): purified compounds from Alpinia oxyphylla. Type of data set: in vivo, Male Sprague-Dawley rats. How it is done:
Animal Model for Evaluating Chronic Visceral Hypersensitivity by Measuring […] Withdrawal Reflex (AWR)
In this model, behavioral response was studied by measuring the AWR, which is an involuntary motor reflex similar to visceromotor reflex. The AWR was graded with the intensity of stimulus.
Male Sprague-Dawley rats (BioLASCO Taiwan Co., Ltd., Taiwan) were kept in an air-conditioned animal shelter at room temperature of 22° C. to 24° C. with controlled level of humidity (40% to 50%) in a 12-hour light-dark cycle. Each rat weighed between 200 to 350 g in the beginning of the test. Tap water and standard laboratory rodent chow were provided ad libitum. Unless specifically indicated, each group included 6 rats, and experiments were conducted without fasting the animals. The plant extracts and positive control drugs were given to the animals either orally or intraperitoneally.
Behavioral studies were assessed in according to previously described procedures (AL-CHAER et al., Gastroenterology 2000, 119:1276-1285). Briefly, the rats were then housed in small Lucite cubicles (20×8×8 cm) on an elevated Plexiglas platform and allowed to wake up and adapt (1 hr). Animal was injected subcutaneously with a dose of 5-HTP (10 mg/kg) to induce visceral hypersensitivity, and behavioral response was studied by measuring the AWR. Measurement of the AWR consisted of visual observation of the animal response by blinded observers and assignments of an AWR score: 0, no behavioral response; 1, brief head movement followed by immobility; 2, mild contraction of abdominal muscles without lifting the abdomen off the platform; 3, strong contraction of the abdominal muscles and lifting abdomen off the platform; 4, severe contraction of the abdominal muscle manifested by body arching and lifting of pelvic structures. Behavioral measurements were repeated by two different blinded observers.
(§1) All results are expressed as means±STD; n refers to animals in each group. Differences between animals of each group were compared by one-way
(§2) ANOVA followed by Dunnett's t test. A p value less than or equal to 0.05 was considered to be statistically significant.

Data set [2] deals with 5-HTP induced diarrhea and/or abnormal defecation. Description: 5-HTP induced diarrhea and/or abnormal defecation animal model. To be noted: for 5-HTP induced diarrhea (diarrhea score): FIG. 12A; for 5-HTP induced diarrhea (diarrhea score) / number of stools excreted: N=5 mice/group; for number of stools excreted: FIG. 12B, in 30 min; for anti-abnormal defecation effect / activity: purified compounds from Alpinia oxyphylla. Type of data set: in vivo, Male ICR mice. How it is done: Animal Model for Evaluating 5-HTP Induced Diarrhea and/or Abnormal Defecation
Male ICR mice (BioLASCO Taiwan Co., Ltd., Taiwan) were kept in an air-conditioned animal shelter at room temperature of 22° C. to 24° C. with controlled level of humidity (40% to 50%) in a 12-hour light-dark cycle. Each mouse weighed between 30 to 34 g in the beginning of the test. Tap water and standard laboratory rodent chow were provided ad libitum.
[…], and each mice in the test group was given two doses of the Alpinia spp. extract of this invention (i.e., 500 mg/kg, 1,000 mg/kg, or 2,000 mg/kg) orally on day 1, and a third dose on day 2; and one dose of 5-HTP (i.p., 10 mg/kg) just 60 minutes after the administration of the third dose of the Alpinia spp. extract. In some occasions, the Alpinia spp. extracts of this invention were given intraperitoneally instead of orally. For comparison purpose, loperamide hydrochloride (oral; 2 mg/kg), ondansteron hydrochloride (oral; 2 mg/kg) or graniserton hydrochloride (oral; 2 mg/kg) were given once respectively to the control animals just 30 minutes prior to the administration of 5-HTP. Thirty minutes after 5-HTP injection, defecation of each animal was observed, with number of stools excreted for 30 min and diarrhea score respectively recorded accordingly. The diarrhea score was designed to describe consistency of stool using an arbitrary score scale from 0 to 3, with 0 representing solid form of stool, 1 representing loose form of stool, 2 representing partially liquid-like form of stool, and 3 representing watery form of stool.
as §1, §2

Data set [3] has as its system IBS patients. To be noted: reported, cited from earlier work.

As to `CN1C2CCCC1CC(NC(=O)c1nn(C)c3ccccc13)C2` (stereo not shown) [Granisetron, granisetron, reference compound], in data set [1] (100 μg/kg i.p., n = 1, Table 1), the “AWR score: body arching and lifting of pelvic structures” value (from here on “AWR score: body arching and lifting”) came out at 1.90; the “AWR score: lifting abdomen” value was 2.80.
Turning to `C=C(C)[C@]1(O)CC[C@]2(C)CC(=O)C=C(C)[C@H]2C1` [PDC-2453, 7-epi-teucrenone], in data set [2], the “5-HTP induced diarrhea (diarrhea score)” value was “capable of suppressing 5-HTP induced diarrhea”, the “number of stools excreted” value is reported as “reducing the number of stools excreted” and the “anti-abnormal defecation effect / activity” value is recorded as “possess anti-abnormal defecation activity”.
For `CC(C)[C@@H]1CCC(=O)C2=C1[C@H](O)[C@](C)(O)CC2` [PDC-2454, Oxyphellenodiol A], in that order: “capable of suppressing 5-HTP induced diarrhea”, “reducing the number of stools excreted” and “possess anti-abnormal defecation activity”.
For `C=C(C)[C@@H]1CC[C@]2(C)CCC(=O)C(C)=C2[C@H]1O` [PDC-2460, 6-α-hydroxy-7-epi-α-cyperone], in that order: “capable of suppressing 5-HTP induced diarrhea”, “reducing the number of stools excreted” and “possess anti-abnormal defecation activity”.
With `C=C(C)[C@@]1(O)CC[C@]2(C)CC(=O)C=C(C)[C@H]2C1` [PDC-2464, Teucrenone], in data set [2], the “5-HTP induced diarrhea (diarrhea score)” value was “capable of suppressing 5-HTP induced diarrhea”, the “number of stools excreted” value is on record as “reducing the number of stools excreted” and the “anti-abnormal defecation effect / activity” value is on record as “possess anti-abnormal defecation activity”. In data set [1] (5 mg/kg i.p., Table 3), the “AWR score: body arching and lifting” value came out at 1.75 ± 0.16; the “AWR score: lifting abdomen” value came to 1.60 ± 0.11. Also, in data set [1], the “AWR scores compared with control rats” value is “significantly lower” and the “anti-abdominal pain activity (or anti-visceral hypersensitivity)” value was “proved to possess anti-abdominal pain activity”.
Turning to `COc1cc(O)c2c(=O)cc(-c3ccccc3)oc2c1` [PDC-2521, Tectochrysin], the “anti-abnormal defecation effect / activity” value in data set [2] is reported as “possess anti-abnormal defecation activity”.
With `COc1cc(O)c2c(=O)c(O)c(-c3ccccc3)oc2c1` [PDC-2524, Isalpinin], in data set [1] (2.5 mg/kg i.p., Table 3), the “AWR score: body arching and lifting” value was 2.40 ± 0; the “AWR score: lifting abdomen” value worked out at 2.27 ± 0.06. Further, in data set [1] (5 mg/kg i.p., Table 3), the “AWR score: body arching and lifting” value was 2.10 ± 0; the “AWR score: lifting abdomen” value came out at 1.87 ± 0.06. Moreover, in data set [1] (10 mg/kg i.p., n = 1, Table 3), the “AWR score: body arching and lifting” value came to 1.60; the “AWR score: lifting abdomen” value came to 1.20. In addition, in data set [1], the “AWR scores compared with control rats” value is on record as “significantly lower” and the “anti-abdominal pain activity (or anti-visceral hypersensitivity)” value is listed as “proved to possess anti-abdominal pain activity”.
As for `Cc1[nH]cnc1CN1CCc2c(c3ccccc3n2C)C1=O` [alosetron], in data set [3], the “IBS patients with improved clinical symptoms” value is recorded as “about 50%”; the “IBS patients with side effects such as constipation and ischemia colitis” value is given as 30-35%.
As to `[H]/N=C(/NCCCCC)N/N=C/c1c[nH]c2ccc(OC)cc12` [tegaserod], in data set [3], the “therapeutic effects on IBS” value was “limited therapeutic effects on IBS”. Also, in data set [3] (retracted from the market in 2007), the “risk of IBS patients in developing cardiovascular diseases” value is “increases significantly”.
